Source: patent publication US20130045484A1, “METHODS AND KITS FOR DETERMINING THE TOXICITY OF AN AGENT” (priority 2010, published 2013)
Structures can show the parent of a compound that is named as a salt. Where two headings read alike, the source gives them in different places. One block for each compound: values may come before it.

Experiments:
[1] = system: p53R2 (RE)
Experimental: Constructs were transiently transfected into human HEK 293 cells using a lipid-based commercially available reagent (FuGENE HD Transfection Reagent, Roche Applied Science). Transfections were carried out following the manufacturer's instructions. Briefly, freshly passaged cells (20,000/well) were dispensed into Greiner Bio-One tissue-culture treated μ-clear (clear base), white, sterile, 96-well cluster plates and incubated overnight (37° C., 95% humidity, 5% CO2) in antibiotic-free media. Cells were transfected (100 ng DNA/well; 5 μl transfection complex/well) with pGL4.70 [hRLuc], p53R2 (RE) pGL4.70 [hRLuc], pGL4.70 MinP [hRLuc], or p53R2 (RE) pGL4.70 MinP [hRLuc] for 24 h, in antibiotic-free media. Several FuGENE HD Transfection Reagent: DNA ratios (3:2-8:2 in the final complex) were evaluated in order to determine the optimal level of transient transfection.
Renilla luciferase activity was measured using the ViviRen Luciferase Live Cell Substrate following the Manufacturer's instructions. Briefly, the ViviRen substrate (60 mM; 20 μl) was diluted 1:50 with complete EMEM at room temperature. 10 μl was added to each culture well (to give a final concentration of 60 μM in each well containing cells to be tested). Microtitre plates were incubated for two minutes at room temperature before measuring luminescence on a Tecan Ultra (Tecan Corporation) in luminescence mode, integrating for 100 ms. Alternatively luminescence can be measured on a LEADseeker multi-modality instrument in luminescence mode (GE Healthcare).

[2] = system: HEK 293 cells; assay: Firefly Luciferase Bioluminescent ATP cell viability assay; assay type: cell-based, human; conditions: for ATP response (cytotoxicity): phenformin 250 μg/ml, MMS 50 μg/ml, doxorubicin 1 μg/ml
Experimental: The assay was carried out in 96-well cluster plates on the same cell containing sample(s) as the p53R2 Renilla Luciferase Reporter Gene Assay. Traditionally bioluminescent ATP quantification methods use firefly luciferase to quantify ATP in the presence of inorganic magnesium ions and the substrate luciferin. The ATP assay described here uses a recombinant luciferase from a gene isolated from the Pennsylvania Firefly (Photuris pennsylvania). Following Renilla luciferase gene reporter activity quantification, firefly luciferase activity was measured in each well using the Cell-Titer Glo Luciferase ATP Quantification Assay Kit in accordance with the kit manufacturer's instructions. Briefly, the enzyme substrate was equilibrated to room temperature and reconstituted with the assay buffer. 100 μl of this reagent was added to cells which quenched the Renilla luciferase reaction and liberated the cellular contents by cellular lysis. […] It is based on the quantitative measurement of ATP which indicates the absolute number of metabolically active cells.

[3] = system: superoxide dismutase; assay: Superoxide Dismutase (SOD) (Oxidative Stress) Assay; assay type: cell-based, human; conditions: mean superoxide dismutase response (450 nm) ÷ mean ATP response × 10^7; HEK 293; mannitol 1 mg/ml, doxorubicin 1 μg/ml, MMS 50 μg/ml, phenformin 250 μg/ml
Experimental: The assay was conducted using the same cell containing sample(s) as the p53R2 Renilla Luciferase Reporter Gene and the Firefly Luciferase Bioluminescent ATP assays. The assays were performed in 96-well cluster plates.
On completion of ATP quantification, SOD was measured on each cellular sample following the SOD assay kit manufacturer's instructions. Briefly, the assay method is based on a water-soluble tetrazolium salt, WST-1 (2-(4-Iodophenyl)-3-(4-nitrophenyl)-5-(2,4-disulfophenyl)-2H-tetrazolium, monosodium salt) that produces a colourimetric formazan dye upon reduction with a superoxide anion which can be measured spectrophotometrically. The rate of the reduction with the superoxide anion is linearly related to […] xanthine oxidase (XO) activity. Thus, cellular samples (20 μl) were added to a reaction mixture (220 μl) containing WST-1 and XO and incubated for 20 mins at 37° C. Absorbance was measured at 450 nm using a 96-well microtitre plate reader.

[4] = system: caspase-3; assay: Caspase-3 (apoptosis) Assay; assay type: cell-based, human; conditions: for Mean Apoptotic Index: mean Caspase-3 response (405 nm) ÷ mean ATP response × 10^8, mannitol 1 mg/ml, doxorubicin 1 μg/ml, MMS 50 μg/ml, phenformin 250 μg/ml
Experimental: The assay was carried out using the same cell containing sample(s) as the p53R2 Renilla Luciferase Reporter Gene, the Firefly Luciferase Bioluminescent ATP and the superoxide assays. Once again, all of the assays were performed in 96-well cluster plates. Activation of caspase-3 plays a central role in the execution-phase of apoptosis. Thus, the caspase-3 assay will provide useful information on the mechanism of cellular toxicity. Following SOD measurement, caspase-3 was measured on each cellular sample in accordance with the Caspase-3 Assay Kit manufacturer's instructions. Briefly, the colorimetric assay is based on the hydrolysis of the peptide substrate acetyl-Asp-Glu-Val-Asp p-nitroanilide (Ac-DEVD-pNA) by caspase-3, resulting in the release of the p-nitroaniline (pNA) moiety which can be measured at 405 nm.
For the assay, cellular sample lysates (5 μl) were added to a reaction mixture containing caspase-3 substrate (Ac-DEVD-pNA, 95 μl) and samples were incubated for 2 h at 37° C. Absorbance was measured at 405 nm using a 96-well microtitre plate reader.

[5] = system: Salmonella; conditions: McCann et al., 1975, PNAS 72, 5135-5139; cited from earlier work
[6] = FIG. 16, apoptosis values alone, HEK 293

Structure (SMILES): COc1cccc2c1C(=O)c1c(O)c3c(c(O)c1C2=O)C[C@@](O)(C(=O)CO)C[C@@H]3O[C@H]1C[C@H](N)[C@H](O)[C@H](C)O1 [Doxorubicin, doxorubicin hydrochloride]
- induction of Renilla luciferase [1]: significant induction
- ATP response (cytotoxicity) ([2]; FIG. 10e, 8:2 transfection): no reduction
- ATP response (cytotoxicity) ([2]; FIG. 11e, 7:2 transfection): no reduction
- cytotoxicity based upon ATP levels ([2]; FIGS. 10 and 11): not cytotoxic
- Mean Stress Index [3]: 0.96
- caspase 3 activities [4, 6]: comparable
- Mean Apoptotic Index ([4]; HEK 293): 3.43
- genotoxicity characterization [5]: highly

- induction of Renilla luciferase [1]: no induction
- Mean Stress Index [3]: 1.22
Structure (SMILES): OC[C@@H](O)[C@@H](O)[C@H](O)[C@H](O)CO [Mannitol, mannitol]
- Mean Apoptotic Index ([4]; HEK 293): 1.04

Structure (SMILES): COS(C)(=O)=O [Methylmethane sulfonate, methylmethane sulfonate]
- induction of Renilla luciferase [1]: less induction
- cytotoxicity based upon ATP levels [2]: not cytotoxic
- caspase 3 activities [4]: comparable
- genotoxicity characterization [5]: moderately

- induction of Renilla luciferase [1]: no induction
Structure (SMILES): [H]/N=C(/N)N/C(=N/[H])NCCc1ccccc1 [Phenformin, phenformin hydrochloride]
- caspase 3 activities [4, 6]: comparable
